Biological target: HIF PHD2 (Homo sapiens, UniProt Q9GZT9)
Assay: PHD2 inhibition assay (TR-FRET, VCB-Eu detection of hydroxylated P564-HIF1α peptide)
Assay type: biochemical
Details: 2 nM PHD2, 100 nM P564-HIF1α peptide, 0.25 μM 2-oxoglutarate, 100 μM FeCl2, 2 mM ascorbic acid, pH 6
Protocol: Inhibition of HIF PHD2 activity was quantified utilizing the TR-FRET technology. HIF PHD2 catalyzes a hydroxyl modification on the proline residue of the P564-HIF1α peptide substrate (Biotin-[…] (SEQ ID NO: 7)) resulting in recognition and binding of the europylated Von Hippel-Lindau protein (pVHL), elongin B and elongin C heterotrimeric (VCB-Eu) complex.
The PHD2 inhibition assay was executed by addition of freshly dissolved FeCl2 to 178.57 μM (100 μM final concentration) in PHD2 Reaction Buffer containing 30 mM MES, pH 6, 10 mM NaCl, 0.25% Brij-35, 0.01% BSA, and 1% DMSO. 28 μL of the iron solution and 2 μL of inhibitor compounds serially diluted in 100% DMSO (5% DMSO final) were added to black polypropylene 96-well microtiter plates. To that, 10 μL of 10 nM PHD2 (2 nM final) was added to all wells of the plate except for the 8 wells of column 12 (LO control), and allowed to incubate at room temperature on the shaker for one hour. Column 6 was the HI control containing PHD2 enzyme and 5% DMSO vehicle, but no inhibitor compound. To initiate the PHD2 enzymatic reaction, 10 μL of a solution containing 500 nM P564-HIF1α peptide (100 nM final), 10 mM ascorbic acid (2 mM final), and 1.25 μM 2-oxoglutarate (α-ketoglutarate; 0.25 μM final) in PHD2 Reaction Buffer was added to all wells of the plate and allowed to incubate on the shaker at room temperature for one hour.
The reaction was terminated by addition of 25 μL TR-FRET Buffer (50 mM TRIS-HCl, pH 9, 100 mM NaCl, 0.05% BSA, and 0.5% Tween-20) containing 150 mM succinate (product inhibitor; 50 mM final), 75 nM streptavidin-APC (25 nM final), and 7.5 nM VCB-Eu (2.5 nM final). The TR-FRET detection reagents were placed on a shaker for 1 hour to reach binding equilibrium before reading on the Discovery platform (PerkinElmer). Europium is excited at 315 nm and phosphoresces at 615 nm with a large Stoke's shift. APC, in turn, emits at 655 nm upon excitation at 615 nm. The TR-FRET signal is measured as the ratio of the APC 655 nm signal divided by the internal europium reference 615 nm emission signal.
The POC (percentage of control) was determined by comparing the signal from hydroxylated peptide substrate in the enzyme reaction containing inhibitor compound with that from PHD2 enzyme with DMSO vehicle alone (HI control), and no enzyme (LO control). POC was calculated using the formula: % control (POC)=(cpd−average LO)/(average HI−average LO)*100. Data (consisting of POC and inhibitor concentration in μM) was fitted to a 4-parameter equation (y=A+((B−A)/(1+((x/C)^D))), where A is the minimum y (POC) value, B is the maximum y (POC), C is the x (cpd concentration) at the point of inflection and D is the slope factor) using a Levenburg-Marquardt non-linear regression algorithm.

HIF PHD2, sequence (Q9GZT9 whole entry): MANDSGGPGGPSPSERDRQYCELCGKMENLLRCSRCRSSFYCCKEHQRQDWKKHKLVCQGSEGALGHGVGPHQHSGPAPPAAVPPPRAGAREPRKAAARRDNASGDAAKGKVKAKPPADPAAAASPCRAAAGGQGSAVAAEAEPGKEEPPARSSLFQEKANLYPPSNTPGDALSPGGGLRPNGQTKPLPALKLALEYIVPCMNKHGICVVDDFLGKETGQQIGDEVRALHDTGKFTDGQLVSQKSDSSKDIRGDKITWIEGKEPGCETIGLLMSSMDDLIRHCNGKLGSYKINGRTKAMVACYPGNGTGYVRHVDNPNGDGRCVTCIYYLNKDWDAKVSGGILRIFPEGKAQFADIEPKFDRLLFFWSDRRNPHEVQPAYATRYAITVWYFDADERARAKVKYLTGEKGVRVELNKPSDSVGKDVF

IC50 [nM]	SMILES
5.3	Cn1c(=O)c(C(=O)NCC(=O)O)c(O)c2cnc(-c3cccc4[nH]ccc34)nc21 [Example 56, 2-(5-hydroxy-2-(1H-indol-4-yl)-8-methyl-7-oxo-7,8-dihydropyrido[2,3-d]pyrimidine-6-carboxamido)acetic acid]
14	Cn1c(-c2ncc3c(O)c(C(=O)NCC(=O)O)c(=O)n(C)c3n2)cc2ccccc21 [Example 57, 2-(5-hydroxy-8-methyl-2-(1-methyl-1H-indol-2-yl)-7-oxo-7,8-dihydropyrido[2,3-d]pyrimidine-6-carboxamido)acetic acid]
42	Cc1ccc(S(=O)(=O)n2cc(-c3ncc4c(O)c(C(=O)NCC(=O)O)c(=O)n(C)c4n3)c3ccccc32)cc1 [Example 58, 2-(5-hydroxy-8-methyl-7-oxo-2-(1-tosyl-1H-indol-3-yl)-7,8-dihydropyrido[2,3-d]pyrimidine-6-carboxamido)acetic acid]

Source: patent US8097620B2, “Diazaquinolones that inhibit prolyl hydroxylase activity” (Amgen Inc., priority 2007, dated 2012)
